In patent US20160159814A1, “GLYCINE TRANSPORTER INHIBITOR” (TAISHO PHARMACEUTICAL CO., LTD., priority 2013, published 2016):
Like-named read-outs stand apart in the source and are kept apart here.

Biological target: T1, human type 1 glycine transporter (GlyT1) (Homo sapiens, UniProt P48067)
T1 construct: T98G cells (glioma cells) expressing human type 1 glycine transporter (GlyT1) were used; endogenous in cells; host or cells: T98G cells (human glioma cells)
T1 sequence (P48067 1-706): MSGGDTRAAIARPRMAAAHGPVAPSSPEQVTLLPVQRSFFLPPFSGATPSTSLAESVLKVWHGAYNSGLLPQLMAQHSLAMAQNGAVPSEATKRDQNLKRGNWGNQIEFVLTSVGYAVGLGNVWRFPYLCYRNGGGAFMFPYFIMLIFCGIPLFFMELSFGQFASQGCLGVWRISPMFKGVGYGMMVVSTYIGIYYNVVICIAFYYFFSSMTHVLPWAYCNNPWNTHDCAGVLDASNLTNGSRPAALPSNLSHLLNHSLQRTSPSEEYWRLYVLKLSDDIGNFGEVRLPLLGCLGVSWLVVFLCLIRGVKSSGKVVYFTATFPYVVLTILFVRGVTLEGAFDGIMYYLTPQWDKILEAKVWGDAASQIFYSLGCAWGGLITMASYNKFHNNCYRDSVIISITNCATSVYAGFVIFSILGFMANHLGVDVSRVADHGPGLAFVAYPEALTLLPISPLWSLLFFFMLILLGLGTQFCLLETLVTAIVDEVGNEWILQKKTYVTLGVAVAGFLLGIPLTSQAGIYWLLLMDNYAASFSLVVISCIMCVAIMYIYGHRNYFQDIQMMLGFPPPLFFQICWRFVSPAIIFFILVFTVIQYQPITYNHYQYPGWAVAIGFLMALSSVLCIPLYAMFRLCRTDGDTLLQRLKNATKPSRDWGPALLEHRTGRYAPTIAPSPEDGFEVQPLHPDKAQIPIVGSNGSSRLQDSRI
Assay: Glycine uptake inhibition experiment ([3H] glycine uptake in T98G cells expressing GlyT1)
Assay type: cell-based
Method in brief: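 T98G glioma cells expressing human GlyT1 were pretreated 10 min with compound in HEPES buffer pH 7.4 (0.2% BSA), then incubated with compound plus 250 nM final [3H]glycine for 15 min at room temperature. Intracellular radioactivity was counted after NaOH lysis; 10 μM ALX5407 defined non-specific uptake. IC50 came from 10^−9–10^−5 M curves.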

[1] = table section whose head prints (μm)

| SMILES | IC50 | IC50 (glycine uptake inhibition) | also measured |
| --- | --- | --- | --- |
| C[C@H](O)c1cccc2c1C(F)(F)C(=O)N2Cc1ccc2ccccc2n1 [Compound 77, 3,3-difluoro-4-[(1S)-1-hydroxyethyl]-1-(quinolin-2-ylmethyl)-1,3-dihydro-2H-indol-2-one] |  | 0.037 µM |  |
| N#Cc1nccc(CN2C(=O)C(F)(F)c3c(C(O)C(F)F)cccc32)c1Cl (single isomer, unassigned) [Compound 267] |  |  | IC50 [1]: 0.26 µM |
| C[C@H](O)c1cccc2c1C(F)(F)C(=O)N2Cc1cncc(C(F)F)c1 [Compound 116, 1-{[5-(difluoromethyl)pyridin-3-yl]methyl}-3,3-difluoro-4-[(1S)-1-hydroxyethyl]-1,3-dihydro-2H-indol-2-one] |  | 0.11 µM |  |
| COc1cccc(CN2C(=O)C(F)(F)c3c([C@H](C)O)cccc32)n1 [Compound 68, 3,3-difluoro-4-[(1S)-1-hydroxyethyl]-1-[(6-methoxypyridin-2-yl)methyl]-1,3-dihydro-2H-indol-2-one] |  | 0.076 µM |  |
| N#Cc1cc(CN2C(=O)C(F)(F)c3c(C(O)C(F)F)cccc32)cnc1F (single isomer, unassigned) [Compound 272, 5-{[4-(2,2-difluoro-1-hydroxyethyl)-3,3-difluoro-2-oxo-2,3-dihydro-1H-indol-1-yl]methyl}-2-fluoropyridine-3-carbonitrile] |  |  | IC50 [1]: 0.027 µM |
| N#Cc1nc(CN2C(=O)C(F)(F)c3c(C(O)C(F)F)cccc32)ccc1Cl (single isomer, unassigned) [Compound 271, 3-chloro-6-{[4-(2,2-difluoro-1-hydroxyethyl)-3,3-difluoro-2-oxo-2,3-dihydro-1H-indol-1-yl]methyl}pyridine-2-carbonitrile] |  |  | IC50 [1]: 0.0055 µM |
| C[C@H](O)c1cccc2c1C(F)(F)C(=O)N2Cc1cncc(-n2cncn2)c1 [Compound 129] |  | 6.9 µM |  |
| C[C@H](O)c1cccc2c1C(F)(F)C(=O)N2Cc1ccnc(F)c1 [Compound 42, 3,3-difluoro-1-[(2-fluoropyridin-4-yl)methyl]-4-[(1S)-1-hydroxyethyl]-1,3-dihydro-2H-indol-2-one] |  | 0.05 µM |  |
| N#Cc1cc(CN2C(=O)C(F)(F)c3c(C(O)C(F)F)cccc32)cc(Cl)n1 (single isomer, unassigned) [Compound 264, 6-chloro-4-{[4-(2,2-difluoro-1-hydroxyethyl)-3,3-difluoro-2-oxo-2,3-dihydro-1H-indol-1-yl]methyl}pyridine-2-carbonitrile] |  |  | IC50 [1]: 0.17 µM |
| C[C@H](O)c1cccc2c1C(F)(F)C(=O)N2Cc1cc2ccoc2cn1 [Compound 125, 3,3-difluoro-1-(furo[2,3-c]pyridin-5-ylmethyl)-4-[(1S)-1-hydroxyethyl]-1,3-dihydro-2H-indol-2-one] |  | 0.13 µM |  |
| CC(C)(O)c1cccc2c1C(F)(F)C(=O)N2Cc1cccc(Cl)n1 [Compound 12, 1-[(6-chloropyridin-2-yl)methyl]-3,3-difluoro-4-(2-hydroxypropan-2-yl)-1,3-dihydro-2H-indol-2-one] |  | 0.7 µM |  |
| O=C1N(Cc2ccc(F)c(Cl)n2)c2cccc(C(O)C(F)F)c2C1(F)F (single isomer, unassigned) [Compound 263, 1-[(6-chloro-5-fluoropyridin-2-yl)methyl]-4-(2,2-difluoro-1-hydroxyethyl)-3,3-difluoro-1,3-dihydro-2H-indol-2-one] |  |  | IC50 [1]: 0.011 µM |
| O=C1N(Cc2cccc(Cl)n2)c2cccc(C(O)CF)c2C1(F)F (centres unmarked) [Compound 11, 1-[(6-chloropyridin-2-yl)methyl]-3,3-difluoro-4-(2-fluoro-1-hydroxyethyl)-1,3-dihydro-2H-indol-2-one] |  | 0.017 µM |  |
| C[C@H](O)c1cccc2c1C(F)(F)C(=O)N2Cc1cccc(Cl)c1 [Compound 55, 1-(3-chlorobenzyl)-3,3-difluoro-4-[(1S)-1-hydroxyethyl]-1,3-dihydro-2H-indol-2-one] |  | 0.0022 µM |  |
| C[C@H](O)c1cccc2c1C(F)(F)C(=O)N2Cc1ccc2nccnc2c1 [Compound 46, 3,3-difluoro-4-[(1S)-1-hydroxyethyl]-1-(quinoxalin-6-ylmethyl)-1,3-dihydro-2H-indol-2-one] |  | 0.14 µM |  |
| C[C@H](O)c1cccc2c1C(F)(F)C(=O)N2Cc1c2ccccc2nn1C [Compound 93] |  | 0.054 µM |  |
| C[C@H](O)c1cccc2c1C(F)(F)C(=O)N2Cc1cccc(-n2cncn2)n1 [Compound 62, 3,3-difluoro-4-[(1S)-1-hydroxyethyl]-1-{[6-(1H-1,2,4-triazol-1-yl)pyridin-2-yl]methyl}-1,3-dihydro-2H-indol-2-one] |  | 0.23 µM |  |
| C[C@H](O)c1cccc2c1C(F)(F)C(=O)N2Cc1ccc(F)nc1 [Compound 128, 3,3-difluoro-1-[(S-fluoropyridin-3-yl)methyl]-4-[(1S)-1-hydroxyethyl]-1,3-dihydro-2H-indol-2-one] |  | 0.052 µM |  |
| C[C@H](O)c1cccc2c1C(F)(F)C(=O)N2Cc1cc(C#N)c(F)cn1 [Compound 262, 2-{(3,3-difluoro-4-[(1S)-1-hydroxyethyl]-2-oxo-2,3-dihydro-1H-indol-1-yl}methyl)-5-fluoropyridine-4-carbonitrile] |  |  | IC50 [1]: 0.062 µM |

Second part, led by results:

| IC50 | IC50 (glycine uptake inhibition) | SMILES | also measured |
| --- | --- | --- | --- |
| 0.033 µM |  | C[C@H](O)c1cccc2c1C(F)(F)C(=O)N2Cc1ncc(C(F)(F)F)cc1Cl [Compound 221, 1-{[3-chloro-5-(trifluoromethyl)pyridin-2-yl]methyl)-3,3-difluoro-4-[(1S)-1-hydroxyethyl]-1,3-dihydro-2H-indol-2-one] |  |
| 0.032 µM |  | COc1cc(CN2C(=O)C(F)(F)c3c([C@H](C)O)cccc32)ncc1Cl [Compound 232, 1-[(5-chloro-4-methoxypyridin-2-yl)methyl)-3,3-difluoro-4-[(1S)-1-hydroxyethyl]-1,3-dihydro-2H-indol-2-one] |  |
| 0.024 µM |  | C[C@H](O)c1cccc2c1C(F)(F)C(=O)N2Cc1cccc(C#N)n1 [Compound 177, 6-({3,3-difluoro-4-[(1S)-1-hydroxyethyl]-2-oxo-2,3-dihydro-1H-indol-1-yl}methyl)pyridine-2-carbonitrile] |  |
| 0.46 µM |  | N#Cc1cncc(CN2C(=O)C(F)(F)c3c(C(O)C(F)F)cccc32)c1 (single isomer, unassigned) [Compound 164, 5-{[4-(2,2-difluoro-1-hydroxyethyl)-3,3-difluoro-2-oxo-2,3-dihydro-1H-indol-1-yl]methyl}pyridine-3-carbonitrile] |  |
| 0.085 µM |  | C[C@H](O)c1cccc2c1C(F)(F)C(=O)N2Cc1ncccc1Br [Compound 211, 1-[(3-bromopyridin-2-yl)methyl]-3,3-difluoro-4-[(1S)-1-hydroxyethyl]-1,3-dihydro-2H-indol-2-one] |  |
| 0.68 µM |  | C[C@H](O)c1cccc2c1C(F)(F)C(=O)N2Cc1cccnc1Cl [Compound 210, 1-[(2-chloropyridin-3-yl)methyl]-3,3-difluoro-4-[(1S)-1-hydroxyethyl]-1,3-dihydro-2H-indol-2-one] |  |
| 0.06 µM |  | C[C@H](O)c1cccc2c1C(F)(F)C(=O)N2Cc1ncccc1Cl [Compound 206, 1-[(3-chloropyridin-2-yl)methyl]-3,3-difluoro-4-[(1S)-1-hydroxyethyl]-1,3-dihydro-2H-indol-2-one] |  |
| 0.2 µM |  | N#Cc1cc(Cl)cnc1CN1C(=O)C(F)(F)c2c(C(O)C(F)F)cccc21 (single isomer, unassigned) [Compound 276, 5-chloro-2-{[4-(2,2-difluoro-1-hydroxyethyl)-3,3-difluoro-2-oxo-2,3-dihydro-1H-indol-1-yl]methyl}pyridine-3-carbonitrile] |  |
| 0.064 µM |  | O=C1N(Cc2cncc(C(F)(F)F)c2)c2cccc(C(O)C(F)F)c2C1(F)F (single isomer, unassigned) [Compound 186, 4-(2,2-difluoro-1-hydroxyethyl)-3,3-difluoro-1-{[5-(trifluoromethyl)pyridin-3-yl]methyl}-1,3-dihydro-2H-indol-2-one] |  |
| 0.055 µM |  | COc1nc(CN2C(=O)C(F)(F)c3c([C@H](C)O)cccc32)ccc1F [Compound 246, 3,3-difluoro-1-[(5-fluoro-6-methoxypyridin-2-yl)methyl]-4-[(1S)-1-hydroxyethyl]-1,3-dihydro-2H-indol-2-one] |  |
| 0.41 µM |  | C[C@H](O)c1cccc2c1C(F)(F)C(=O)N2Cc1ccncc1F [Compound 163, 3,3-difluoro-1-[(3-fluoropyridin-4-yl)methyl]-4-[(1S)-1-hydroxyethyl]-1,3-dihydro-2H-indol-2-one] |  |
| 0.31 µM |  | CC(O)c1c(F)ccc2c1C(F)(F)C(=O)N2Cc1cncc(Cl)c1 (single isomer, unassigned) [Compound 181, 1-[(5-chloropyridin-3-yl)methyl]-3,3,5-trifluoro-4-(1-hydroxyethyl)-1,3-dihydro-2H-indol-2-one] |  |
| 0.01 µM |  | O=C1N(Cc2ccnc(OC(F)F)c2)c2cccc(C(O)C(F)F)c2C1(F)F (single isomer, unassigned) [Compound 218, 4-(2,2-difluoro-1-hydroxyethyl)-1-{[2-(difluoromethoxy)pyridin-4-yl]methyl}-3,3-difluoro-1,3-dihydro-2H-indol-2-one] |  |
